According to patent US8575309B2, “Delta-opioid receptor selective analgesics” (Biousian Biosystems, Inc., priority 2008, dated 2013):
Like-named read-outs stand apart in the source and are kept apart here. Non-standard residues stand in square brackets, D forms with d. Residues, ends and D or L forms follow the SMILES beside them. *: point of attachment. βGlc = OC[C@H]1O[C@@H](*)[C@H](O)[C@@H](O)[C@@H]1O; Nle = CCCC[C@H](N)C(=O)O; Nva = CCC[C@H](N)C(=O)O

How the values were obtained:
[1] = molecular target: T1, human delta opioid receptor (hDOR) (Homo sapiens, UniProt P41143); assay: Radioligand competition binding, [3H]naltrindole, hDOR CHO cell membranes; settings: for rank order of affinity for the delta receptor: peptides at 100 nM and 1 nM vs. 0.2 nM [3H]Naltrindole, 20 ug hDOR CHO cell membranes (FIGS. 1 and 2)
T1 construct: expressed in transfected cells; membranes

[2] = molecular target: T2, human kappa opioid receptor (hKOR) (Homo sapiens, UniProt P41145); assay: Radioligand binding, [3H]U69,593, hKOR CHO cell membranes; settings: peptide at 10 uM, read-out: Max Inhib at 10 uM (%) Kappa [3H]U69,593 Mean
T2 construct: expressed in transfected cells; membranes

[3] = molecular target: T3, human mu opioid receptor (hMOR) (Homo sapiens, UniProt P35372); assay: Radioligand competition binding, [3H]DAMGO, hMOR CHO cell membranes
T3 construct: expressed in transfected cells; membranes

[4] = tested on: mouse tail flick; assay: Mouse tail flick assay, oral availability of formulations; assay type: in vivo; settings: for antinociceptive activity: 32 mg/kg
[5] = molecular target: T4, hMOR (Homo sapiens, UniProt P35372); assay: [35S]GTPγS binding assay, hMOR CHO cell membranes; assay type: biochemical; settings: for Antagonist Properties Imax (%) Mu Mean: cell wraps over r13-r15: No Inhibition; for Description: Mu: functional classification; for Emax: hMOR CHO cell membranes, @ 10 um, read-out: Agonist Properties EMax (%) Mu Mean
T4 construct: expressed in transfected cells; membranes
Method: (§1) GTPγS binding assay to determine if the peptide is an agonist, antagonist, or partial agonist at the DOR. Membranes from the CHO cell lines, expressing either the MOR, DOR or KOR, will be incubated with 12 concentrations of each peptide for 60 min at 30° C. in a final volume of 0.5 mL of assay buffer (50 mM Tris-HCl, 3 mM MgCl2, 0.2 mM EGTA, 100 mM NaCl, pH 7.5) containing 3 μM GDP and 0.08 nM [^35S] GTPγS. Basal binding is determined in the presence of GDP and the absence of opioids, and nonspecific binding is determined by including 10 μM unlabeled […] GTPγS. The incubation is terminated by filtration under vacuum through glass fiber filters, followed by three washes with 3-ml ice-cold 50 mM Tris-HCl, pH 7.5. Samples are allowed to equilibrate overnight and are counted in 2 ml of Ecoscint A scintillation fluid for 2 min in a liquid scintillation counter.
(§2) GTPγS binding assay described in Example 3.

[6] = molecular target: T5, hDOR (Homo sapiens, UniProt P41143); assay: [35S]GTPγS binding assay, hDOR CHO cell membranes; assay type: biochemical; settings: for Antagonist Properties Imax (%) Delta Mean: cell wraps over r13-r15: No Inhibition; for Description: Delta: functional classification; for Emax: read-out: Agonist Properties EMax (%) Delta Mean
T5 construct: expressed in transfected cells; membranes
Method: as §1, §2

T5 sequence (P41143 whole entry): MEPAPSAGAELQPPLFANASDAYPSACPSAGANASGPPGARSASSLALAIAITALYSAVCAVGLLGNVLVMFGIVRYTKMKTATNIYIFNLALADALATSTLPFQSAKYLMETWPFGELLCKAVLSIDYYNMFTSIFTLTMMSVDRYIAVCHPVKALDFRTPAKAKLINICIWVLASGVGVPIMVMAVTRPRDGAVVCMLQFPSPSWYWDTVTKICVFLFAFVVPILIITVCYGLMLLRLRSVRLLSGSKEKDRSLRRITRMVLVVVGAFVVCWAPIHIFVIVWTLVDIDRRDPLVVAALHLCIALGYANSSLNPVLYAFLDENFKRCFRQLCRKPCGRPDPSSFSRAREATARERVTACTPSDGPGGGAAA
T1 sequence (P41143 whole entry): as above
T4 sequence (P35372 whole entry): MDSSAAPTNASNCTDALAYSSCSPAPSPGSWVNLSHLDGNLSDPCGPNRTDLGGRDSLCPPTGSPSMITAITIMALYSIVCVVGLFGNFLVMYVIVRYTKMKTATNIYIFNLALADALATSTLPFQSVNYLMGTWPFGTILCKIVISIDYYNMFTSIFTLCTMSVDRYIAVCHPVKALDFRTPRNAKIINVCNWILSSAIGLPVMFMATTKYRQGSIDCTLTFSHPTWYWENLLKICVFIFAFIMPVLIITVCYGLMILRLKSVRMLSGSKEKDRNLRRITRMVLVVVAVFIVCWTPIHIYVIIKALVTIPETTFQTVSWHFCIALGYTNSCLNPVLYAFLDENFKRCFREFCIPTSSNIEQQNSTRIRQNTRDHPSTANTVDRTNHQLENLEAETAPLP
T3 sequence (P35372 whole entry): as above
T2 sequence (P41145 whole entry): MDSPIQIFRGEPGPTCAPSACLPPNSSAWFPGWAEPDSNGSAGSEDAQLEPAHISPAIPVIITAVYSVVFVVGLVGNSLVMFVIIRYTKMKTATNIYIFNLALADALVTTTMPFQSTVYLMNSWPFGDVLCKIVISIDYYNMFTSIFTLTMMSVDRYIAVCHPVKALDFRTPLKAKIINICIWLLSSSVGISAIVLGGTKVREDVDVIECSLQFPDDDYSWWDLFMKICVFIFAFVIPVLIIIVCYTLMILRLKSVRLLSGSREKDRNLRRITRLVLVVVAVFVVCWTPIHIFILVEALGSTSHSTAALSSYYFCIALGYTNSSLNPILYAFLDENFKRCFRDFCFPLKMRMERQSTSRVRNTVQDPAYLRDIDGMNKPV

H2N-YaFE-Nva-Nva-T(beta-D-Glc)-amide (H-Y[dA]FE[Nva][Nva]T(βGlc)-NH2; SMILES CCC[C@H](NC(=O)[C@H](CCC(=O)O)NC(=O)[C@H](Cc1ccccc1)NC(=O)[C@@H](C)NC(=O)[C@@H](N)Cc1ccc(O)cc1)C(=O)N[C@@H](CCC)C(=O)N[C@H](C(N)=O)[C@@H](C)O[C@@H]1O[C@H](CO)[C@@H](O)[C@H](O)[C@H]1O) [Peptide 11007]
rank order of affinity for the delta receptor [1]: [11001≈111003≈11008≈DPDDE]>[11005≈11006≈11007]>[11002≈11004]>Lsz27

H2N-YmFHLMS(beta-D-Glc)-amide (H-Y[dM]FHLMS(βGlc)-NH2; SMILES CSCC[C@H](NC(=O)[C@H](CC(C)C)NC(=O)[C@H](Cc1c[nH]cn1)NC(=O)[C@H](Cc1ccccc1)NC(=O)[C@@H](CCSC)NC(=O)[C@@H](N)Cc1ccc(O)cc1)C(=O)N[C@@H](CO[C@@H]1O[C@H](CO)[C@@H](O)[C@H](O)[C@H]1O)C(N)=O) [Peptide 11001]
rank order of affinity for the delta receptor [1]: [11001≈111003≈11008≈DPDDE]>[11005≈11006≈11007]>[11002≈11004]>Lsz27

CCCC[C@H](NC(=O)[C@H](CCC(=O)O)NC(=O)[C@H](Cc1ccccc1)NC(=O)[C@@H](C)NC(=O)[C@@H](N)Cc1ccc(O)cc1)C(=O)N[C@@H](CCCC)C(=O)N[C@H](C(N)=O)[C@@H](C)O[C@@H]1O[C@H](CO)[C@@H](O)[C@H](O)[C@H]1O [Peptide 11008, H2N-YaFE-Nle-Nle-T(beta-D-Glc)-amide] (H-Y[dA]FE[Nle][Nle]T(βGlc)-NH2)
inhibition at 10 µM [2]: 2.9%
Ki [3]: 1.1 µM
efficacy of oral formulation versus unformulated glycopeptide ([4]; oral formulation, 3.2 mg/kg): just slightly lower efficacy than that produced by 32 mg/kg of unformulated glycopeptide 11008
antinociceptive activity ([4]; oral formulation): 75%
antinociceptive activity ([4]; saline formulation (unformulated)): 30%
IC50 [1]: 0.042 µM
Ki [1]: 0.014 µM
rank order of affinity for the delta receptor [1]: [11001≈111003≈11008≈DPDDE]>[11005≈11006≈11007]>[11002≈11004]>Lsz27
lower affinity for delta than DPDPE ([1]; relative to DPDPE): ~3 fold
Antagonist Properties Imax (%) Mu Mean [5]: No
Description: Mu [5]: Very weak agonist
Emax [5]: 27%
EC50 [6]: 12 nM
Antagonist Properties Imax (%) Delta Mean [6]: No
Description: Delta [6]: Agonist
Emax ([6]; hDOR CHO cell membranes): 75%

H2N-YmFHLMT(beta-D-Glc)-amide (H-Y[dM]FHLMT(βGlc)-NH2; SMILES CSCC[C@H](NC(=O)[C@H](CC(C)C)NC(=O)[C@H](Cc1c[nH]cn1)NC(=O)[C@H](Cc1ccccc1)NC(=O)[C@@H](CCSC)NC(=O)[C@@H](N)Cc1ccc(O)cc1)C(=O)N[C@H](C(N)=O)[C@@H](C)O[C@@H]1O[C@H](CO)[C@@H](O)[C@H](O)[C@H]1O) [Peptide 11003]
rank order of affinity for the delta receptor [1]: [11001≈111003≈11008≈DPDDE]>[11005≈11006≈11007]>[11002≈11004]>Lsz27

CCC[C@H](NC(=O)[C@H](CCC)NC(=O)[C@H](CCC(=O)O)NC(=O)[C@H](Cc1ccccc1)NC(=O)[C@@H](C)NC(=O)[C@@H](N)Cc1ccc(O)cc1)C(=O)N[C@@H](CO[C@@H]1O[C@H](CO)[C@@H](O)[C@H](O)[C@H]1O)C(N)=O [Peptide 11005, H2N-YaFE-Nva-Nva-S(beta-D-Glc)-amide] (H-Y[dA]FE[Nva][Nva]S(βGlc)-NH2)
inhibition at 10 µM [2]: 5.3%
Ki [3]: 0.71 µM
IC50 [1]: 0.061 µM
Ki [1]: 0.02 µM
rank order of affinity for the delta receptor [1]: [11001≈111003≈11008≈DPDDE]>[11005≈11006≈11007]>[11002≈11004]>Lsz27

H2N-YaFHLAS(beta-D-Glc)-amide (H-Y[dA]FHLAS(βGlc)-NH2; SMILES CC(C)C[C@H](NC(=O)[C@H](Cc1c[nH]cn1)NC(=O)[C@H](Cc1ccccc1)NC(=O)[C@@H](C)NC(=O)[C@@H](N)Cc1ccc(O)cc1)C(=O)N[C@@H](C)C(=O)N[C@@H](CO[C@@H]1O[C@H](CO)[C@@H](O)[C@H](O)[C@H]1O)C(N)=O) [Peptide 11002]
rank order of affinity for the delta receptor [1]: [11001≈111003≈11008≈DPDDE]>[11005≈11006≈11007]>[11002≈11004]>Lsz27

H2N-YaFE-Nle-Nle-S(beta-D-Glc)-amide (H-Y[dA]FE[Nle][Nle]S(βGlc)-NH2; SMILES CCCC[C@H](NC(=O)[C@H](CCCC)NC(=O)[C@H](CCC(=O)O)NC(=O)[C@H](Cc1ccccc1)NC(=O)[C@@H](C)NC(=O)[C@@H](N)Cc1ccc(O)cc1)C(=O)N[C@@H](CO[C@@H]1O[C@H](CO)[C@@H](O)[C@H](O)[C@H]1O)C(N)=O) [Peptide 11006]
rank order of affinity for the delta receptor [1]: [11001≈111003≈11008≈DPDDE]>[11005≈11006≈11007]>[11002≈11004]>Lsz27

CCCC[C@H](NC(=O)[C@H](CCC(=O)O)NC(=O)[C@H](Cc1ccccc1)NC(=O)[C@@H](C)NC(=O)[C@@H](N)Cc1ccc(O)cc1)C(=O)N[C@@H](CCCC)C(=O)N[C@H](C(N)=O)[C@@H](C)O [Peptide 11009, H2N-YaFE-Nle-Nle-T-amide] (H-Y[dA]FE[Nle][Nle]T-NH2)
Antagonist Properties Imax (%) Mu Mean [5]: No
Description: Mu [5]: Very weak agonist
Emax [5]: 42%
Antagonist Properties Imax (%) Delta Mean [6]: No
Description: Delta [6]: Agonist
EC50 ([6]; hDOR CHO cell membranes, read-out: Agonist Properties EC50 (nM) Delta Mean): 12 nM
Emax ([6]; hDOR CHO cell membranes): 67%

H2N-YaFHLAT(beta-D-Glc)-amide (H-Y[dA]FHLAT(βGlc)-NH2; SMILES CC(C)C[C@H](NC(=O)[C@H](Cc1c[nH]cn1)NC(=O)[C@H](Cc1ccccc1)NC(=O)[C@@H](C)NC(=O)[C@@H](N)Cc1ccc(O)cc1)C(=O)N[C@@H](C)C(=O)N[C@H](C(N)=O)[C@@H](C)O[C@@H]1O[C@H](CO)[C@@H](O)[C@H](O)[C@H]1O) [Peptide 11004]
rank order of affinity for the delta receptor [1]: [11001≈111003≈11008≈DPDDE]>[11005≈11006≈11007]>[11002≈11004]>Lsz27
